Reference: patent publication US20260184726A1, “HETEROCYCLIC COMPOUNDS AS KINASE INHIBITORS, COMPOSITIONS, AND METHODS OF USE THEREOF” (JS INNOMED HOLDINGS LTD., priority 2022, published 2026)

Target: T1, BAF3-KIF5B-RET cells (Homo sapiens, UniProt P07949)
T1 construct: fused on or other part: P33176 (Kinesin-1 heavy chain)
Test: BAF3-KIF5B-RET Cell Proliferation Assay (CellTiter-Glo)
Assay type: cell-based
Details: growth inhibition, 72 hours; Table 2; read-out: BA/F3-KIF5B-RET Cellular activity
Method in brief: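 Ba/F3 cells driven by KIF5B-RET (wild-type, V804M or G810R) or TEL-RET-M918T, 2,000 per well in RPMI/10% FBS, attached 24 h. Treated 72 h at 37° C with compound from 0.00015 to 1 μM final, 0.1% DMSO. CellTiter-Glo luminescence relative to DMSO wells gave IC50.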

T1 sequence (P07949 whole entry, change not shown, the tested form may be a part): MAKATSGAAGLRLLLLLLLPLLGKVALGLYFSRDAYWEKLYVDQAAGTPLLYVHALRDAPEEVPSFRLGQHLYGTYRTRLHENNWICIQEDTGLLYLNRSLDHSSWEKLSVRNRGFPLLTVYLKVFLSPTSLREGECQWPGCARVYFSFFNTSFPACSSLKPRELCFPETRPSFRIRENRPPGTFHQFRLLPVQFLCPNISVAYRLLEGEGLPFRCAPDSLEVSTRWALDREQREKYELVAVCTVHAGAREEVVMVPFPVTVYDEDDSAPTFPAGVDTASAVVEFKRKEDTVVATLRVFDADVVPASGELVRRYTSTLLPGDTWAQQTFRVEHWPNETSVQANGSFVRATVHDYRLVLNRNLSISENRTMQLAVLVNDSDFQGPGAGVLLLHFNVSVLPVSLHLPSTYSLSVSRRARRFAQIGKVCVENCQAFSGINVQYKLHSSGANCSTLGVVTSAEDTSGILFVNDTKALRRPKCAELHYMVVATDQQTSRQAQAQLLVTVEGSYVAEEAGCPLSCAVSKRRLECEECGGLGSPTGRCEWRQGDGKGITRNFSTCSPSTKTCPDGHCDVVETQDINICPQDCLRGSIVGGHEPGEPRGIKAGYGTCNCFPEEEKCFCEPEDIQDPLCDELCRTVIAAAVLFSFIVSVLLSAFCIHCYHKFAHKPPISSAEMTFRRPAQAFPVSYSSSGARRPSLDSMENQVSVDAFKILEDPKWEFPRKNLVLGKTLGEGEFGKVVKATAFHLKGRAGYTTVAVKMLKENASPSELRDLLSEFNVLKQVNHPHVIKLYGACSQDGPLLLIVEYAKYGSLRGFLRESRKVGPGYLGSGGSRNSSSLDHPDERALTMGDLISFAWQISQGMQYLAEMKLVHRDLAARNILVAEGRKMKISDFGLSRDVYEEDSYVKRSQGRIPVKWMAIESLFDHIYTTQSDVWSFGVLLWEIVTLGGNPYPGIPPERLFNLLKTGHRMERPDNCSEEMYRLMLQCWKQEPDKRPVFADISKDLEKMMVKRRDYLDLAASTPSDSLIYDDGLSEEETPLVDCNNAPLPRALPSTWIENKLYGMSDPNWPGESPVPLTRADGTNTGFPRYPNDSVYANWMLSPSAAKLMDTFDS

SMILES: COc1ccc(CN2C3CC2CN(c2ccc(-c4cc(-c5ccc(C(C)(C)NC(C)=O)cn5)cn5ncc(C#N)c45)cn2)C3)cn1 [Example 12, N-(2-(6-(3-cyano-4-(6-(6-((6-methoxypyridin-3-yl)methyl)-3,6-diazabicyclo[3.1.1]heptan-3-yl)pyridin-3-yl)pyrazolo[1,5-a]pyridin-6-yl)pyridin-3-yl)propan-2-yl)acetamide]
- GI50: 1 nM
